Results: paper PMC7397659, “Pseudonajide peptide derived from snake venom alters cell envelope integrity interfering on biofilm formation in Staphylococcus epidermidis” (BMC Microbiology, 2020)
Where no end group is shown, it is not given here.

Experiments:
[1] = tested on: S. epidermidis ATCC 35984; assay: Antibiofilm formation test, crystal violet protocol; format: cell-based, Staphylococcus epidermidis; details: 100 μM peptide, 24 h exposure, crystal violet OD570, at least 3 biological replicates
Method: S. epidermidis ATCC 35984 and Pseudomonas aeruginosa PAO1 were used to test the antimicrobial and antibiofilm activities of the peptides. Both bacteria were grown in blood agar plates and cultured overnight at 37 °C. Cell suspensions were prepared in a solution of 0.9% NaCl and adjusted to OD600 for a final concentration of ~ 10^8 cells/ml. For microscopy analysis, pre-inoculum was made in tryptic soy broth (TSB, Merck), and adjusted to OD600 for the same concentration of cells for all tests.
Serial dilution of peptides was performed in 96-well plates, going from 100 to 3.12 μM. Cell suspensions and TSB were added to the plates and a control was made with dimethyl sulfoxide (DMSO). Antibiofilm formation tests were performed with an adapted protocol, in which it is described that 24 h of incubation is sufficient to determinate antibiofilm activity. The OD600 was measured, then biofilm content accessed using the crystal violet protocol. Biofilm eradication test was performed supplementing 24 h pre-formed biofilm with a new culture broth, containing or not 25 μM of peptide. The plates were incubated for further 24 h followed by crystal violet protocol. The antimicrobial activity of pseudonajide was analyzed using a concentration of 25 μM after 1, 2, 4, and 24 h incubation. After measuring the optical density, the supernatant was collected and diluted. […] CFUs were counted after 24 h incubation. […]

[2] = tested on: NCL-H727 (lung carcinoma); assay: Cytotoxicity test, ImPACcell platform; format: cell-based, human; details: 25 μM, 24 h
Method: (§1) Cytotoxicity tests were performed on the ImPACcell robotic platform (BIOSIT, Université de Rennes 1). This featured high-throughput multiparameter image analysis, with both high-content screening and high-content analysis. The platform is equipped with an Olympus microscope and Compix SimplePCI software; a Zeiss Axio Imager M1 microscope with a Zeiss camera and AxioVision software; and imaging systems including an ArrayScan VTI Cellomics reader (Thermo Fisher), Hamilton STARlet and NIMBUS workstations, and a Scienion spotter. Cells used in the test were obtained from an already-existing collection available at BIOSIT (https://biosit.univ-rennes1.fr/impaccell-imagerie-pour-analyse-du-contenu-cellulaire). For the tests, seven different cell lines were used: human hepatocellular carcinoma (HuH7); colorectal adenocarcinoma (Caco-2); breast adenocarcinoma (MDA-MB231); colorectal carcinoma (HCT116); prostatic adenocarcinoma (PC3); lung carcinoma (NCL-H727); and breast cancer (MCF7). The residual cell percentages reported correspond to viable cells compared to the average viable cells in the DMSO control. Viability of 100% represents no cytotoxicity or inhibition of cell growth, while under 25–30% is considered cytotoxic and 0% represents acute cytotoxicity.

[3] = tested on: MDA-MB231 (breast adenocarcinoma); assay: Cytotoxicity test, ImPACcell platform; format: cell-based, human; details: 25 μM, 24 h
Method: as §1

[4] = tested on: HCT116 (colorectal carcinoma); assay: Cytotoxicity test, ImPACcell platform; format: cell-based, human; details: 25 μM, 24 h
Method: as §1

[5] = tested on: HuH7 (hepatocellular carcinoma); assay: Cytotoxicity test, ImPACcell platform; format: cell-based, human; details: 25 μM, 24 h
Method: as §1

[6] = tested on: Caco-2 (colorectal adenocarcinoma); assay: Cytotoxicity test, ImPACcell platform; format: cell-based, human; details: 25 μM, 24 h
Method: as §1

[7] = tested on: PC3 (prostatic adenocarcinoma); assay: Cytotoxicity test, ImPACcell platform; format: cell-based, human; details: 25 μM, 24 h
Method: as §1

MCF7 (breast cancer) = assay: Cytotoxicity test, ImPACcell platform; format: cell-based, human; details: 25 μM, 24 h
Method: as §1

Sequence: KRFKKFFKKLK [Peptide 3]
- reduction of biofilm mass [1]: 78%

Sequence: KRFKKFFKKVK [Peptide 1]
- reduction of biofilm mass [1]: 77%

Sequence: KRFKKFFMKLK [Peptide 2]
- live cell counts compared to control [2]: no decrease in live cell counts
- live cell counts compared to control [3]: no decrease in live cell counts
- live cell counts compared to control [4]: no decrease in live cell counts
- live cell counts compared to control [5]: no decrease in live cell counts
- live cell counts compared to control [6]: no decrease in live cell counts
- live cell counts compared to control [7]: no decrease in live cell counts
- live cell counts compared to control (MCF7 (breast cancer)): no decrease in live cell counts
